Measurements as given in PubChem BioAssay AID2060623 (Molecular Pharmacology Branch, DTP, NCI, 2025).

Test system: 227483-062-R1-J1-PDC complex spheroids with HUVEC/MSC, viability
Assay: Anticancer human tumor 227483-062-R1-J1-PDC patient-derived pancreatic carcinoma cell line growth inhibition [CLK]
Conditions: for IC50: curve of first compound; for viability, T/C: stronger effect = lower value
Text: A high-throughput screen of multi-cell type tumor spheroids was designed to identify active combinations of […] and targeted small molecules. Complex spheroids include a stromal component modeled by human endothelial cells (HUVEC) and fibroblasts modeled by human mesenchymal stem cells (MSCs). The concentration ranges selected for each drug and investigational agent were based upon clinically achievable concentrations if the clinical Cmax of the agent was known.
Compounds. The drugs and investigational agents: cirtuvivint (SM08502; NSC835563), CC-671 (NSC850746), vemurafenib (NSC761431), tapotoclax (NSC804041), sotorasib (NSC818433), adagrasib (NSC831453), MRTX-1133 (NSC836407), BAY2416964 (NSC825713), copanlisib (NSC816437), inavolisib (NSC800729), abemaciclib (NSC768073), osimertinib (NSC779217), entinostat (NSC756642), eltanexor (KPT-8602, NSC794443), venetoclax (NSC766270), ceralasertib (NSC777638), bortezomib (NSC756655), olaparib (NSC753686), talazoparib (NSC767125), alisertib (NSC759677), peposertib (NSC802822), gemcitabine (NSC613327), 5-fluorouracil (NSC19893), SN-38 (NSC673596), oxaliplatin (NSC266046), paclitaxel (NSC125973), and doxorubicin (NSC123127), were obtained from the National Cancer Institute (NCI) Developmental Therapeutics Program Chemical Repository. The FDA-approved anticancer drug set is available from the Developmental Therapeutics Program at https://dtp.cancer.gov/organization/dscb/obtaining/available plates.htm. […] The stock solutions were prepared in dimethyl sulfoxide (DMSO, Sigma-Aldrich, St. Louis, MO, cat. D2650), except for the platinum complexes which were prepared in saline (Quality Biological, Gaithersburg, MD, cat. 114-055-101), at 800-fold the tested concentration and stored at -70 degrees C prior to their use. All drugs and investigational agents were tested over a range starting from a high concentration at or near the clinical Cmax and decreasing in half-log increments. If the clinical Cmax for an agent had not been determined, the highest concentration tested was 10 microM.
Cell Culture. All cells were maintained in an incubator at 37 degrees C and 5% CO2 with 95% humidity. The PDC lines were cultured according to standard operating procedures established by the NCI PDMR. Briefly, all PDCs were thawed and cultured in Matrigel-coated flasks prepared with a working solution of 1X Ham's F-12 nutrient mix, without supplementation (Invitrogen, Waltham, MA, cat. 11765054), 100 U/mL penicillin-streptomycin (Invitrogen, cat. 15140122), and 2.5% Matrigel (Corning Inc., Corning, NY, cat. 354248) for the first three passages. The 947758-054-R-J2-PDC line was cultured in 6B/Colon 1A media, which includes advanced DMEM/F-12 (Thermo Fisher Scientific, cat. 12634028), 10 mM HEPES (Thermo Fisher Scientific, cat. 15630080), 1X GlutaMAX supplement (Thermo Fisher Scientific, cat. 35050061), 0.1 mg/mL primocin (InvivoGen, cat. ant-pm-2), 10% defined fetal bovine serum, heat inactivated (HyClone Laboratories Inc., cat. SH30070.03HI), 1.25 mM N-Acetyl-L-cysteine (Sigma-Aldrich, cat. A9165), 10 mM nicotinamide (Sigma-Aldrich, cat. N0636), 1X B-27 supplement (Thermo Fisher Scientific, cat. 17504044), 1X N-2 supplement (Thermo Fisher Scientific, cat. 17502048), and 10 microM Y-27632 dihydrochloride (Tocris Bioscience, cat. 1254). The 876862-298-R-J1-PDC was cultured in 6E media, which includes all 6B/Colon 1A media components plus 50% L-WRN conditioned media (ATCC, cat. CRL-3276), 50 ng/mL recombinant human EGF recombinant protein (hEGF; Thermo Fisher Scientific, cat. PHG0311), 10 ng/mL recombinant human fibroblast growth factor 10 (hGFG-10; PeproTech, cat. 100-26), 1 ng/mL recombinant human fibroblast growth factor 2 (hFGF-2; PeproTech, cat. 100-18B), and 1 µM prostaglandin E2 (PGE2; Tocris, cat. 2296). The 227483-062-R1-J1-PDC line was cultured in Panc media, containing all 6E components except hFGF-2, with the addition of 500 nM SB-431542 (Selleckchem, cat. S1067) and 10 nM gastrin (Tocris, cat. 3006). […]

[1] = second compound 0.0316 µM, first compound 0.0316 µM
[2] = second compound 0.0316 µM, first compound 0.1 µM
[3] = second compound 0.0316 µM, first compound 0.316 µM
[4] = second compound 0.0316 µM, first compound 1 µM
[5] = second compound 0.0316 µM, first compound 3.16 µM
[6] = second compound 0.0316 µM, first compound 10 µM
[7] = second compound 0.1 µM, first compound 0.0316 µM
[8] = second compound 0.1 µM, first compound 0.1 µM
[9] = second compound 0.1 µM, first compound 0.316 µM
[10] = second compound 0.1 µM, first compound 1 µM
[11] = second compound 0.1 µM, first compound 3.16 µM
[12] = second compound 0.1 µM, first compound 10 µM
[13] = second compound 0.316 µM, first compound 0.0316 µM
[14] = second compound 0.316 µM, first compound 0.1 µM
[15] = second compound 0.316 µM, first compound 0.316 µM
[16] = second compound 0.316 µM, first compound 1 µM
[17] = second compound 0.316 µM, first compound 3.16 µM
[18] = second compound 0.316 µM, first compound 10 µM
[19] = second compound 1 µM, first compound 0.0316 µM
[20] = second compound 1 µM, first compound 0.1 µM
[21] = second compound 1 µM, first compound 0.316 µM
[22] = second compound 1 µM, first compound 1 µM
[23] = second compound 1 µM, first compound 3.16 µM
[24] = second compound 1 µM, first compound 10 µM
[25] = second compound 3.16 µM, first compound 0.0316 µM
[26] = second compound 3.16 µM, first compound 0.1 µM
[27] = second compound 3.16 µM, first compound 0.316 µM
[28] = second compound 3.16 µM, first compound 1 µM
[29] = second compound 3.16 µM, first compound 3.16 µM
[30] = second compound 3.16 µM, first compound 10 µM
[31] = second compound 10 µM, first compound 0.0316 µM
[32] = second compound 10 µM, first compound 0.1 µM
[33] = second compound 10 µM, first compound 0.316 µM
[34] = second compound 10 µM, first compound 1 µM
[35] = second compound 10 µM, first compound 3.16 µM
[36] = second compound 10 µM, first compound 10 µM
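Also: spheroids exposed to compounds for seven days before readout.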
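For viability, T/C in this document: percent of DMSO vehicle control luminescence as 100% viability.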

C=C(F)C(=O)N1CCN(c2nc(OCC3CCCN3C)nc3c2CCN(c2cccc4cccc(Cl)c24)C3)CC1CC#N (centres undefined) + CN1CCN(c2cc(C(=O)Nc3cc4cc(-c5cnn(C)c5)ccc4cn3)ccn2)CC1
IC50 (second compound 0.0316 µM): 6190 nM | IC50 (second compound 0.1 µM): 4890 nM | IC50 (second compound 0.316 µM): < 31.6 nM | IC50 (second compound 1 µM): < 31.6 nM | IC50 (second compound 3.16 µM): < 31.6 nM | IC50 (second compound 10 µM): < 31.6 nM | viability, T/C [1]: 87.7% | viability, T/C [2]: 104% | viability, T/C [3]: 102% | viability, T/C [4]: 86.8% | viability, T/C [5]: 89.8% | viability, T/C [6]: 21.3% | viability, T/C [7]: 67.6% | viability, T/C [8]: 73.8% | viability, T/C [9]: 68% | viability, T/C [10]: 78.8% | viability, T/C [11]: 78.2% | viability, T/C [12]: 11.8% | viability, T/C [13]: 5.59% | viability, T/C [14]: 5.63% | viability, T/C [15]: 5.48% | viability, T/C [16]: 4.47% | viability, T/C [17]: 5.37% | viability, T/C [18]: 0.42% | viability, T/C [19]: 3.8% | viability, T/C [20]: 3.22% | viability, T/C [21]: 2.15% | viability, T/C [22]: 3.98% | viability, T/C [23]: 0.88% | viability, T/C [24]: 0.97% | viability, T/C [25]: 5.83% | viability, T/C [26]: 2.98% | viability, T/C [27]: 3.49% | viability, T/C [28]: 4.77% | viability, T/C [29]: 1.3% | viability, T/C [30]: 1.8% | viability, T/C [31]: 3.7% | viability, T/C [32]: 1.84% | viability, T/C [33]: 3.88% | viability, T/C [34]: 2.09% | viability, T/C [35]: 1.69% | viability, T/C [36]: 0.39%

C=CC(=O)N1CCN(c2nc(=O)n(-c3c(C)ccnc3C(C)C)c3nc(-c4c(O)cccc4F)c(F)cc23)C(C)C1 (centres undefined) + CN1CCN(c2cc(C(=O)Nc3cc4cc(-c5cnn(C)c5)ccc4cn3)ccn2)CC1
IC50 (second compound 0.0316 µM): > 10000 nM | IC50 (second compound 0.1 µM): > 10000 nM | IC50 (second compound 0.316 µM): < 31.6 nM | IC50 (second compound 1 µM): < 31.6 nM | IC50 (second compound 3.16 µM): < 31.6 nM | IC50 (second compound 10 µM): < 31.6 nM | viability, T/C [1]: 90.4% | viability, T/C [2]: 97.5% | viability, T/C [3]: 94.7% | viability, T/C [4]: 104% | viability, T/C [5]: 104% | viability, T/C [6]: 85.5% | viability, T/C [7]: 63.2% | viability, T/C [8]: 68.1% | viability, T/C [9]: 63.1% | viability, T/C [10]: 76.8% | viability, T/C [11]: 66.4% | viability, T/C [12]: 52.7% | viability, T/C [13]: 6.84% | viability, T/C [14]: 6.59% | viability, T/C [15]: 5.21% | viability, T/C [16]: 7.81% | viability, T/C [17]: 5.13% | viability, T/C [18]: 3.55% | viability, T/C [19]: 3.36% | viability, T/C [20]: 2.83% | viability, T/C [21]: 2.54% | viability, T/C [22]: 3.57% | viability, T/C [23]: 6.05% | viability, T/C [24]: 3.88% | viability, T/C [25]: 3.58% | viability, T/C [26]: 3.65% | viability, T/C [27]: 5.09% | viability, T/C [28]: 5.88% | viability, T/C [29]: 6.54% | viability, T/C [30]: 6.07% | viability, T/C [31]: 3.12% | viability, T/C [32]: 2.35% | viability, T/C [33]: 4.11% | viability, T/C [34]: 3.93% | viability, T/C [35]: 6.11% | viability, T/C [36]: 3.94%
